# From publication PMC12514842, “Ligand binding Pro‐miscuity of acylpeptide hydrolase, structural analysis of a detoxifying serine hydrolase” (Protein Science : A Publication of the Protein Society, 2025)
# What was measured:
# [1] = biological target: T1, pAPEH (porcine liver acylpeptide hydrolase, acylaminoacyl-peptidase, AAP) (Sus scrofa, UniProt P19205); assay: cryo-EM structure of complex ([…] A); assay type: binding; details: covalent; Ser587 and His707; 10-fold molar excess, pH 7.5, 37 °C, 1 h
# T1 construct: gene APEH; native, purified from porcine liver; homotetramer; catalytic Ser587, Asp675, His707
# T1 sequence (P19205 1-732): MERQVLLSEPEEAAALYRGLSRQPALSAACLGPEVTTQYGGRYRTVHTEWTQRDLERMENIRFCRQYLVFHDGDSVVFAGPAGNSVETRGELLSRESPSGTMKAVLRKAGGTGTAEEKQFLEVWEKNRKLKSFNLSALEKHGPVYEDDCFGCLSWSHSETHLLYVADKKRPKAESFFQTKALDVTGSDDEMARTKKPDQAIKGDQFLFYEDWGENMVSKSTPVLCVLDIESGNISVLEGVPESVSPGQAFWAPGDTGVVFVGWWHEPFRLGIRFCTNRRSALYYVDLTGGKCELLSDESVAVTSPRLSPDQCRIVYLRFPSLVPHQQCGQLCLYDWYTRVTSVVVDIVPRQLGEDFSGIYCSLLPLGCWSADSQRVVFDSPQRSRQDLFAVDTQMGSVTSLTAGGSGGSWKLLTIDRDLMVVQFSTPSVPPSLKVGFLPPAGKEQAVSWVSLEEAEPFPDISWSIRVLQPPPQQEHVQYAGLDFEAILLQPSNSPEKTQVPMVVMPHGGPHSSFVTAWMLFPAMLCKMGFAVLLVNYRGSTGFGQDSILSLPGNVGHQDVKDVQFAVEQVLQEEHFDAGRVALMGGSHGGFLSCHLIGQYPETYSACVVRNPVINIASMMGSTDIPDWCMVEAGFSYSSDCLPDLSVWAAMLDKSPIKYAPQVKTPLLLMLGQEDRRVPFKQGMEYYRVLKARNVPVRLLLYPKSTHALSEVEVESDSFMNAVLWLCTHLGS
# [2] = biological target: T2, PhAPEH (PhAAP) (Pyrococcus horikoshii, UniProt O58323); assay: hydrolysis of p-nitroanilide substrate; assay type: biochemical
# T2 construct: gene PH0594; produced by the authors; details only in Data S1 chapter II
# T2 sequence (O58323 1-622): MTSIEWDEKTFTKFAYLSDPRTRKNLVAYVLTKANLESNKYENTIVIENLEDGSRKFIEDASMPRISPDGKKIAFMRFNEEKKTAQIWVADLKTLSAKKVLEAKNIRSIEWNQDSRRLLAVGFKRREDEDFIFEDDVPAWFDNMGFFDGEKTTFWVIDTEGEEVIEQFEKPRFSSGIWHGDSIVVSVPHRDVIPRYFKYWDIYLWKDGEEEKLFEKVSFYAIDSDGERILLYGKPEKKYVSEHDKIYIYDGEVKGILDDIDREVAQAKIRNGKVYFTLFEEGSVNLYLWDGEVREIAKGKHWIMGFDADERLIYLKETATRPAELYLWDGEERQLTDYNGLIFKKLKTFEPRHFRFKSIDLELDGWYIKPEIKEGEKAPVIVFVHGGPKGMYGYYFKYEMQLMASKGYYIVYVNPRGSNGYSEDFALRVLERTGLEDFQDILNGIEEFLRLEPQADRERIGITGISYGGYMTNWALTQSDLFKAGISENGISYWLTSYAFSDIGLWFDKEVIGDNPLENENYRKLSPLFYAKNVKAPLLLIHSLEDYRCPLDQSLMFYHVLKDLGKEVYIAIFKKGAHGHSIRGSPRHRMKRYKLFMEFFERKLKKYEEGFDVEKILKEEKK
# [3] = biological target: T3, ApAPEH (ApAAP) (Aeropyrum pernix, UniProt Q9YBQ2); assay: hydrolysis of p-nitroanilide substrate; assay type: biochemical
# T3 construct: gene APE_1547.1; produced by the authors; details only in Data S1 chapter II
# [4] = biological target: T1, pAPEH (porcine liver acylpeptide hydrolase, acylaminoacyl-peptidase, AAP); assay type: binding
# [5] = biological target: T1, pAPEH (porcine liver acylpeptide hydrolase, acylaminoacyl-peptidase, AAP); assay type: binding; remark: listed apart in the source
# T3 sequence (Q9YBQ2 whole entry): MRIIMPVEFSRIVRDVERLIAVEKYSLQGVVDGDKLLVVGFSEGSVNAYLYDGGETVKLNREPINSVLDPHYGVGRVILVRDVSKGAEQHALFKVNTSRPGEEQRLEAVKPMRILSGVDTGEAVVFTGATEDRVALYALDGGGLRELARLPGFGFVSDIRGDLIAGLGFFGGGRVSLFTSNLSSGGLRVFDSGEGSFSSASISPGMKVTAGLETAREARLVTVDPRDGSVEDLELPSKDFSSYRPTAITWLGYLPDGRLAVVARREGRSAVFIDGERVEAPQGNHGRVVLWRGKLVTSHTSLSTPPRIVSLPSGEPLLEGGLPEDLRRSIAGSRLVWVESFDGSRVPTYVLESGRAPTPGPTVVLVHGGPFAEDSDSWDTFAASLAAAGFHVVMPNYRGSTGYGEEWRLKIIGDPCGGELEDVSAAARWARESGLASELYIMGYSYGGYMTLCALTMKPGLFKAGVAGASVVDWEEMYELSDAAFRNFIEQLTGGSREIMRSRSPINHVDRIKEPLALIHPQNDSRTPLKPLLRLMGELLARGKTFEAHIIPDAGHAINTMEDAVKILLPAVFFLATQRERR
smiles,measurement,setting,value
"CC(=O)N[C@@H](C)C(=O)CCl [ligand 1, acetyl-alanyl-chloromethyl ketone]",cryo-EM structure of complex (3.19 A),[1],bound covalently to the active Ser587 and His707 (Figure 2a) of each monomer
CC(=O)N[C@@H](CC(C)C)C(=O)Nc1ccc([N+](=O)[O-])cc1 [Ac-Leu-pNA],hydrolysis of p-nitroanilide substrate,[2],archaeal variants are quite selective toward their specific substrate Ac‐Leu‐pNA
same,hydrolysis of p-nitroanilide substrate,[3],archaeal variants are quite selective toward their specific substrate Ac‐Leu‐pNA
"COP(=O)(OC)OC=C(Cl)Cl [ligand 2, dichlorvos]",cryo-EM structure of complex (2.65 A),[4],Dimethoxy‐phosphate (DMP) residue of dichlorvos is bound covalently to the active Ser587
"NCCc1ccc(S(=O)(=O)F)cc1 [ligand 3, 4-(2-aminoethyl)benzenesulfonyl fluoride]",cryo-EM structure of complex (2.78 A),[5],thus the inhibitor directly coordinates to the active Ser
